The results in this text go back to patent publication US20210179940A1, “WIDE TEMPERATURE RANGE AND HIGH PHOTOCHEMICAL STABILITY SMECTIC LIQUID CRYSTAL COMPOSITIONS WITH A MONOLAYER SMECTIC A PHASE (SMA1), METHOD OF OBTAINING THEREOF AND DEVICES UTILIZING THEREOF” (WOJSKOWA AKADEMIA TECHNICZNA, priority 2017, published 2021).

Where two headings read alike, the source gives them in different places. Where only a bound is given, the exact number is not on record here.

Data set [1] in a line: conductivity of doped smectic A composition 18 in 15 μm cell. It is filed as physicochemical. The following applies: prepared in fluorobenzene, 100 Hz, RT. The source says: The glass cells with a gap of 15 μm filled with the liquid crystal composition were used to measure conductivity and such a parameters of the DS effect as threshold voltage and saturation voltage. […] The orienting layer providing a homeotropic orientation of the molecular director of the smectic composition was obtained using a thin layer of SE1211 (by Nissan Chem.) polyimide, which was deposited on ITO electrodes with a spincoating method, then dried and cured. The testing cells were filled with the liquid crystals composition from the isotropic phase, and they were cooled to the room temperature (RT) and closed.
The components were carefully mixed and then heated to temperature of 90° C. to evaporate the solvent. Then heating was continued under lower pressure (at 0.2 mmHg) for the total removal of the solvent and the composition was carefully mixed by shaking it at the isotropic state. […]

Data set [2] in a line: solubility of ionic compounds in fluorobenzene. How it is done:
Fluorobenzene was used as solvent because it is chemically similar to the liquid crystalline composition used here.
The examination was made in the following way: always the same mole amount of a ionic compound (0.00004 mol) was placed in 2 cm^3 of fluorobenzene. The mixture was mixed to dissolve the compound or to obtain equilibrium between the saturated solution and the solid. When a part of the compound was dissolved only, the sample of the saturated solution was taken (0.5 ml). The solvent was evaporated to dryness, the rest was weighted. Knowing the residue amount, the solubility was calculated.

Data set [3] in a line: conductivity of doped smectic A composition 21 in 15 μm cell. It is filed as physicochemical. The following applies: RT. The source says:
The glass cells with a gap of 15 μm filled with the liquid crystal composition were used to measure conductivity and such a parameters of the DS effect as threshold voltage and saturation voltage. Transparent electrodes were formed from indium-tin oxide (ITO) of specific resistivity 100 Ohm/cm^2 and with surface 1.27×1.27 cm^2. The orienting layer providing a homeotropic orientation of the molecular director of the smectic composition was obtained using a thin layer of SE1211 (by Nissan Chem.) polyimide, which was deposited on ITO electrodes with a spincoating method, then dried and cured. The testing cells were filled with the liquid crystals composition from the isotropic phase, and they were cooled to the room temperature (RT) and closed.
In Table 6 the properties of the composition 21 doped with an amidinium salt or potassium complex of a crown ether are compared. The composition 21 has the phase sequence Cr-SmA1-N-Iso and the higher value of dielectric anisotropy than composition 18.

Data set [4] is described as follows: resistivity of fluorobenzene solutions of ionic compounds (bridge method). Format: physicochemical. The following applies: for resistivity 10 kHz / resistivity 50 Hz: solution in C6H5F, 25° C. How it is done:
The resistivity of the solution was measured by the bridge method using a Wyne Kerr Precision Component Analyzer 6425 and the measuring cells with electrodes of active area of 12.7 mm×12.7 mm. The electrodes were made of ITO. No orienting layers were deposited. The cell formed with two substrates with electrodes mentioned above was filled with the solution by capillary forces. The gap between electrodes was approx. 14.6 μm.

A short description of data set [5]: solubility in organic solvents noted at synthesis. Format: physicochemical. Conditions: solvents named in the value.
Setting [6] is: composition 18, dopant 8.78 · 10^−3 mol/kg.
The mark [7] stands for this setting: composition 21, dopant 6.58 · 10^−3 mol/kg, f = 100 Hz.
[8] abbreviates: composition 18, dopant 6.58 · 10^−3 mol/kg.

For the compound `CCCCCCCCCCCCc1ccc(S(=O)(=O)[O-])cc1.[K+].c1ccc2c(c1)OCCOCCOc1ccccc1OCCOCCO2` [IVg12, Complex of dibenzo-18-crown-6 ether with potassium 4-dodecylbenzenesulphonate], in data set [1] (setting [6]), the “conductivity σ” value is given as 2.7 · 10^−10 Ohm^−1cm^−1. Also, in data set [2] (fluorobenzene, 25° C.), the “solubility in C6H5F” value is given as above 0.02 mol/dcm^3. In addition, the “specific conductivity σ” value in data set [3] (setting [7]) was 4.68 · 10^−10 Ohm^−1cm^−1. In addition, in data set [4], the “resistivity 10 kHz” value is 4.5 · 10^5 Ohm · cm and the “resistivity 50 Hz” value is given as 6.0 · 10^5 Ohm · cm.
`CCCCCCCCCCCCCCCC[N+]1=C2CCCCCN2CCC1` [II.16c, 1-Hexadecyl-1,8-diazabicyclo[5.4.0]undec-7-enium chlorate (VII)]: the “conductivity σ” value in data set [1] (setting [6]) is listed as 4.6 · 10^−10 Ohm^−1cm^−1. Moreover, in data set [2], the “solubility in C6H5F” value is given as >0.02 >0.02 >0.02 >0.02 mol/dcm^3. Further, the “solubility” value in data set [5] is “well soluble in methanol and ethyl acetate”. In addition, in data set [4], the “resistivity 10 kHz” value is 0.84 · 10^6 Ohm · cm and the “resistivity 50 Hz” value is listed as 1.0 · 10^6 Ohm · cm.
For the compound `C1COCCOCCOCCOCCOCCO1.[K+].[O-]c1ccc(F)c(F)c1` [IIIk, complex of 18-crown-6 ether with potassium 3,4-difluorophenolate], the “conductivity σ” value in data set [1] (setting [8]) is 2.7 · 10^−9 Ohm^−1cm^−1; in data set [1] (composition 18, dopant 6.58 · 10^−3 mol/kg, listed as III.k), 2.7·10^−9 Ohm^−1cm^−1. Moreover, the “solubility in C6H5F” value in data set [2] (fluorobenzene, 25° C.) is recorded as above 0.02 mol/dcm^3.
`CCCCCCCCc1ccc([O-])cc1.[K+].c1ccc2c(c1)OCCOCCOc1ccccc1OCCOCCO2` [IVh8, complex of dibenzo-18-crown-6 ether with potassium 4-octylphenolate]: in data set [1] (setting [6]), the “conductivity σ” value was 1.4 · 10^−10 Ohm^−1cm^−1. The “solubility in C6H5F” value in data set [2] (fluorobenzene, 25° C.) came to 0.0107 mol/dcm^3.
Regarding `[K+].[O-]c1ccc(F)c(F)c1.c1ccc2c(c1)OCCOCCOc1ccccc1OCCOCCO2` [IVk, complex of dibenzo-18-crown-6 ether with potassium 3,4-difluorophenolate], the “conductivity σ” value in data set [1] (setting [6]) is recorded as 4.1 · 10^−9 Ohm^−1cm^−1. For the same compound, in data set [2] (fluorobenzene, 25° C.), the “solubility in C6H5F” value is reported as above 0.02 mol/dcm^3. In data set [4], the “resistivity 10 kHz” value is 0.95 · 10^6 Ohm · cm and the “resistivity 50 Hz” value is on record as 1.1 · 10^6 Ohm · cm.
Take “complex of 18-crown-6 ether with sodium dodecyl-1-sulphonate [V.e12]”: the “conductivity σ” value in data set [1] (setting [8]) is given as 3.7 · 10^−10 Ohm^−1cm^−1.
As to `CC[N+]12CCCCCC1=NCCC2.[Br-]` (stereo not shown) [II.2b, 1-ethyl-1,8-diazabicyclo[5.4.0] undec-7-enium bromide], the “conductivity σ” value in data set [1] (setting [8]) is 3.0 · 10^−9 Ohm^−1cm^−1. Further, in data set [2] (fluorobenzene, 25° C.), the “solubility in C6H5F” value is listed as 0.0077 mol/dcm^3. Also, the “solubility” value in data set [5] is “well soluble in ethanol and ethyl acetate”.
On to “complex of 18-crown-6 ether with potassium bromide [IIIb]”, for which the “conductivity σ” value in data set [1] (setting [8]) is 1.1 · 10^−9 Ohm^−1cm^−1.
On to `CCCCCCCCCCCCCCCC[N+]1=C2CCCCCN2CCC1` [II.16d, 1-hexadecyl-1,8-diazabicyclo[5.4.0]undec-7-enium 1,1,1-trifluoromethanesulphonate], for which the “solubility in C6H5F” value in data set [2] is given as >0.02 >0.02 >0.02 >0.02 mol/dcm^3.
Same read-out and setting: the result for “1-hexadecyl-1,8-diazabicyclo[5.4.0]undec-7-enium 3,4-difluorophenolate [II.16k]” reads >0.02 >0.02 >0.02 >0.02 mol/dcm^3.
As to `C1COCCOCCOCCOCCOCCO1.CCCCCCCCCCCCc1ccc(S(=O)(=O)[O-])cc1.[K+]` [III.g12, complex of 18-crown-6 ether with potassium 4-dodecylbenzenesulphonate], in data set [2] (fluorobenzene, 25° C.), the “solubility in C6H5F” value is recorded as above 0.02 mol/dcm^3. In addition, the “specific conductivity σ” value in data set [3] (composition 21, 0.1 wt % dopant + 0.3 wt % stabilizer of formula 29, f = 100 Hz) was 7.0 · 10^−9 Ohm^−1cm^−1.
With “complex of dibenzo-18-crown-6 ether with potassium bromide [IVb]”, in data set [1] (setting [8]), the “conductivity σ” value is on record as 2.2 · 10^−10 Ohm^−1cm^−1.
Regarding “1-hexadecyl-1,8-diazabicyclo[5.4.0]undec-7-enium 4-dodecylbenzenesulphonate [II.16g12]”, the “conductivity σ” value in data set [1] (setting [6]) is 1.1 · 10^−9 Ohm^−1cm^−1. For the same compound, the “solubility in C6H5F” value in data set [2] (fluorobenzene, 25° C.) is recorded as above 0.02 mol/dcm^3. In data set [3] (setting [7]), the “specific conductivity σ” value is 7.42 · 10^−10 Ohm^−1cm^−1. Besides, in data set [4], the “resistivity 10 kHz” value was 1.9 · 10^6 Ohm · cm and the “resistivity 50 Hz” value was 2.1 · 10^6 Ohm · cm.
As to “complex of dibenzo-18-crown-6 ether with potassium chlorate (VII) [IVc]”, in data set [1] (setting [6]), the “conductivity σ” value is listed as 1.5 · 10^−10 Ohm^−1cm^−1. In addition, the “solubility in C6H5F” value in data set [2] (fluorobenzene, 25° C.) is below 0.002 mol/dcm^3. In data set [4], the “resistivity 10 kHz” value is listed as 2.9 · 10^7 Ohm · cm and the “resistivity 50 Hz” value is listed as 4.2 · 10^7 Ohm · cm. For the same compound, the resistivity in data set [4] (solution in fluorobenzene, frequency not stated) was 4.2·10^7 Ohm·cm.
For the compound `CCCCCCCCCCCCCCCC[N+]1=C2CCCCCN2CCC1` [II.16b, 1-hexadecyl-1,8-diazabicyclo[5.4.0]undec-7-enium bromide], the “solubility in C6H5F” value in data set [2] is given as >0.02 >0.02 >0.02 >0.02 mol/dcm^3. The “solubility” value in data set [5] is “well soluble in methanol and chloroform”.
Consider `N#Cc1c(F)cc([O-])cc1F.[K+].c1ccc2c(c1)OCCOCCOc1ccccc1OCCOCCO2` [IVn, complex of dibenzo-18-crown-6 ether with potassium 3,5-difluoro-4-cyanophenolate], for which the “conductivity σ” value in data set [1] (composition 18, dopant 2.19 · 10^−3 mol/kg) is listed as 2.19 · 10^−9 Ohm^−1cm^−1. Also, in data set [1] (setting [6]), the “conductivity σ” value was 8.1 · 10^−9 Ohm^−1cm^−1. In addition, the “solubility in C6H5F” value in data set [2] (fluorobenzene, 25° C.) is listed as above 0.02 mol/dcm^3. In data set [4], the “resistivity 10 kHz” value was 4.6 · 10^5 Ohm · cm and the “resistivity 50 Hz” value is recorded as 4.2 · 10^5 Ohm · cm.
For the compound “1-hexadecyl-1,8-diazabicyclo[5,4,0]undec-7-enium 3,5-difluoro-4-cyanophenolate [II.16n]”, in data set [1] (setting [6]), the “conductivity σ” value is on record as 1.8 · 10^−8 Ohm^−1cm^−1. The “solubility in C6H5F” value in data set [2] is recorded as above 0.02 mol/dcm^3. Besides, in data set [4], the “resistivity 10 kHz” value is 3.8 · 10^5 Ohm · cm and the “resistivity 50 Hz” value is reported as 3.9 · 10^5 Ohm · cm. The “resistivity of I.16b, times higher than that of the compound” value in data set [4] (solution in fluorobenzene) is on record as 140 times.
As for `CCCCCCCCCCCCCCCC[N+](C)(C)C.[Br-]` [I.16b, hexadecyltrimethylammonium bromide, reference compound], in data set [2], the “solubility compared with the ionic compounds of the disclosure” value is listed as “lower at least ten times” and the “solubility in C6H5F” value is 0.00274 mol/dcm^3. In addition, in data set [4], the “resistivity 10 kHz” value was 5.2 · 10^7 Ohm · cm and the “resistivity 50 Hz” value is reported as 5.0 · 10^7 Ohm · cm.
